The test system of data set [1] is seizures. The following applies: Consroe et al., 1977; cited from earlier work.
The test system of data set [2] is focal seizures leading to secondary generalisation. The data set is described as follows: Expanded access compassionate use program: 50% responders for focal seizures leading to secondary generalisation. In kind it is in vivo, human. The following applies: proportion of patients; 12 weeks of treatment.
A short description of data set [3]: Solubility of the drug substance in water. In kind it is physicochemical.
Data set [4] deals with seizures. The following applies: mice; after administration of pro-convulsant drugs or an electric current; cited from earlier work.
Data set [5] has as its system seizures. As to conditions: 200 mg/day of pure CBD; four adult patients; cited from earlier work.
The test system of data set [6] is myoclonic absence seizures. The data set is described as follows: Patients with greater than 50% reduction of myoclonic absence seizures under CBD. In kind it is in vivo, human. The following applies: treatment with CBD.
Another data set deals with generalized epilepsy. The following applies: of eight adult patients with generalized epilepsy; cited from earlier work.
In the next data set the test system is total seizures. Put plainly: Expanded access compassionate use program: 50% responders for total seizures, all subjects. The following applies: proportion of all subjects treated; 12 weeks of treatment. In kind it is in vivo, human. Here is the method:
The terms “50% responder” and “50% reduction in seizure” are both terms used in clinical studies. In the present application the terms define the percentage of subjects that experienced a greater than or equal to 50% reduction in the number of seizures during treatment with CBD in comparison to the number experienced during the baseline period before the CBD was administered.
Of 137 children and young adults with severe, childhood onset treatment-resistant epilepsy (TRE), fifty-one suffered from epilepsy that was characterised by focal seizures. These subjects were tested with a highly purified extract of cannabidiol (CBD) obtained from a Cannabis plant. All subjects presented with focal type seizures, often in addition to generalised seizures. The participants in the study were part of an expanded access compassionate use program for CBD.
All patients entered a baseline period of 4 weeks when parents/caregivers kept prospective seizure diaries, noting all countable seizure types.
The patients then received a highly purified CBD extract (greater than 98% CBD w/w) in sesame oil, of known and constant composition, at a dose of 5 mg/kg/day in addition to their baseline anti-epileptic drug (AED) regimen.

A further data set deals with absence seizures. The data set is described as follows: Patients with greater than 50% reduction of absence seizures under CBD. In kind it is in vivo, human. The following applies: treatment with CBD.
The test system of the next data set is refractory epilepsy. As to conditions: Press et al.; parental reporting; cited from earlier work.
Data set [7] has as its system seizures. The following applies: 200 mg day of pure CBD; twelve institutionalized adult patients; open label; cited from earlier work.
Data set [8] deals with focal seizures without impairment. Put plainly: Expanded access compassionate use program: 50% responders for focal seizures without impairment. In kind it is in vivo, human. The following applies: proportion of patients; 12 weeks of treatment.

Consider `CCCCCc1cc(O)c2c(c1)OC(C)(C)[C@@H]1CCC(C)=C[C@@H]21` [THC, Tetrahydrocannabinol], for which the effect on seizures result in the data set on seizures [1] was “pro-convulsant”.

Take `C=C(C)[C@@H]1CCC(C)=C[C@H]1c1c(O)cc(CCCCC)cc1O` [CBD, Cannabidiol]: in [2], the “<50% reduction in seizures, Focal Seizures Leading to Secondary Generalised (n = 15)” value was 53% and the “>50% reduction in seizures, Focal Seizures Leading to Secondary Generalised (n = 15)” value came to 47%. Further, the solubility in water result in [3] is reported as “insoluble”. Moreover, the prevention of seizures entry in the data set with seizures [4] is “able to prevent seizures”. In addition, the “patients who became seizure free” value in the data set on seizures [5] is recorded as “two of the four patients became seizure free”. For the same compound, the “proportion of patients with greater than 50% reduction of myoclonic absence seizures” value in data set [6] stood at 75%. In addition, the “patients with marked reduction of seizures” value in the data set on generalized epilepsy is 4. Moreover, the “<50% reduction in seizures, Total seizures (n = 137)” value with total seizures was 54% (n = 74). Also, the “proportion of patients with greater than 50% reduction of absence seizures” value in the data set with absence seizures turned out to be 64%. The “responder rate by OCE type” value with refractory epilepsy is reported as 35%. Further, the control of seizures result in the data set with seizures [7] is reported as “ineffective”. Further, in data set [8], the “<50% reduction in seizures, Focal Seizures without Impairment (n = 6)” value is reported as 50% and the “>50% reduction in seizures, Focal Seizures without Impairment (n = 6)” value is given as 50%.

The record behind these values is patent US12064399B2, “Use of cannabinoids in the treatment of epilepsy” (Jazz Pharmaceuticals Research UK Limited, priority 2015, dated 2024).
